From ChEMBL document CHEMBL3507680, “University of Dundee, Gates Library screen for HepG2 cell viability” come the findings set out here.

This data set can be described thus: Human HepG2 cell viability assay in 384 well format. In kind it is toxicity, cell-based. Details: dose 125 nL, time 70.5 hour; cytotoxicity at 70.5 h: concentration not given beside the values. To be noted: HepG2 cells, read-out: Inhibition.
As to `COc1ncnc2c1CCN(C(=O)NCc1cccc(F)c1)CC2`, the cytotoxicity at 70.5 h was -6.04%.
The result for `CCOCC1COCCC12CCN(C(=O)CC1=CCCCC1)CC2` (stereo unspecified) reads -5.12%; that for `CC1N(C)C(=O)COC12CCN(C(=O)Cc1ccsc1)CC2` (stereo unspecified), -5.66%; that for `O=C(C1CC1)N1CCC2(CC1)CNCc1ccccc12`, 18.9%.
With `CN1C(=O)C2(CCN(S(=O)(=O)C3CC3)CC2)c2ccccc21` the figure was -2.07%; with `c1cnc(N2C[C@H](OCC3CCOCC3)[C@H]3COC[C@H]32)nc1`, -1.34%; with `COc1ccc(-c2cnc3n2CCNC32CCN(S(C)(=O)=O)CC2)cc1`, -6.19%.
With `Cc1ccc(CNC(=O)c2nc3c(o2)CN(c2ncccn2)C3)o1` the figure was -2.56%; with `CC(C)N(C)[C@@H]1CCN(Cc2ccoc2)[C@H]1Cc1ccccc1`, -1.21%.
For the compound `CN1CCN(CCO)C(=O)C12CCN(c1nccs1)CC2`, the cytotoxicity at 70.5 h is -2.35%.
With `CS(=O)(=O)N1CCn2c(C(=O)N3CCOCC3)cnc2C1` the figure was -0.596%.
The result for `CNC(=O)[C@@H]1CC[C@@H]2[C@@H](CCN2C(=O)N(C)C)O1` reads -0.00257%.
With `CS(=O)(=O)N1CC[C@H]2O[C@H](C(=O)NCc3cccnc3)CC[C@H]21` the figure was 0.629%.
As to `CCCS(=O)(=O)N1CCC2(CC(C(=O)NCc3cccnc3)=NO2)C1` (stereo unspecified), the cytotoxicity at 70.5 h was -10.3%.
Regarding `O=C(NCCc1ccncc1)[C@H]1CC[C@@H]2[C@@H](CCN2C2CCC2)O1`, the cytotoxicity at 70.5 h was -7.73%.
Turning to `CNC(=O)N1CC[C@@H]2CN(Cc3cccc(Cl)c3)S(=O)(=O)[C@@H]2CC1`, the cytotoxicity at 70.5 h was -4.42%.
The result for `COCC(=O)N1CCC2(CC(C(=O)NCc3cccnc3)=NO2)C1` (stereo unspecified) reads -5.23%; that for `CCCS(=O)(=O)N1CCOC2(CCCN(c3ccc(C)nn3)C2)C1` (stereo unspecified), -6.62%; that for `CS(=O)(=O)N1CC[C@H]2O[C@@H](C(=O)NCc3ccco3)CC[C@H]21`, -12%.
With `Cc1ccsc1CN1CC[C@H]2O[C@H](C(=O)N3CCCO3)CC[C@H]21` the figure was -8.24%; with `O=C(c1cccc(F)c1)N1C[C@H]2CCCC(OCc3cccnc3)[C@H]2C1` (stereo partly specified), -7.83%; with `Cc1noc(C)c1CN1CC[C@H]2OCC[C@@H](C(=O)N3CCCO3)[C@H]2C1`, -2.47%.
The result for `CNC(=O)c1cc2c(nc1NCC1CC1)CCNCC2` reads 4.29%; that for `CCN(C)c1ncnc2c1CCN(C(=O)N1CCOCC1)CC2`, 6.06%; that for `COc1ccc(S(=O)(=O)N2CCn3cnc(COCC4CC4)c3C2)cc1`, 10.3%.
On to `CN1C(=O)C(c2cccnc2)CC12CCN(C(=O)c1ccc[nH]1)CC2` (stereo unspecified), for which the cytotoxicity at 70.5 h stood at 15.4%.
The result for `CCOCc1ncn2c1CN(S(=O)(=O)c1ccc(OC)cc1)CC2` reads -9.1%; that for `COCc1ncn2c1CN(S(=O)(=O)c1ccc(C)cc1)CC2`, -0.994%; that for `CCOCc1ncn2c1CN(S(=O)(=O)c1ccc(C)cc1)CC2`, 35.9%.
With `Cc1cccc(CO[C@@H]2C[C@H]3CN(C(=O)c4cnccn4)CCN3C2)n1` the figure was -8.15%; with `CC(C)(C)C(=O)N1C[C@@H]2COC[C@]2(c2nnc(C3CC3)o2)C1`, -8.33%; with `Cc1cnc(CNC(=O)[C@@H]2CC[C@@H]3[C@@H](CCN3Cc3ccco3)O2)cn1`, -11.9%.
`Cc1cc(C(=O)N2C[C@@H]3COC[C@]3(c3nnc(C)o3)C2)on1`: the cytotoxicity at 70.5 h was -11.2%.
The result for `O=C(Nc1ccccc1)C1CN(Cc2cccs2)CC12CCOCC2` (stereo unspecified) reads -6.1%.
The result for `Cc1ccc(C(=O)N2CC[C@H]3O[C@@H](c4noc(C)n4)C[C@H]3C2)o1` reads -8.48%; that for `Cc1nc([C@H]2C[C@H]3CN(C(=O)c4ccoc4C)CC[C@@H]3O2)no1`, -7.31%; that for `Cc1ccc(C(=O)N2CCc3ncnc(C)c3CC2)cc1F`, 6.96%.
With `Cc1ccc(N2CCCc3sc(C(=O)NCc4ccc(C)o4)nc32)nn1`, the cytotoxicity at 70.5 h is -6.21%.
With `Cc1ncnc2c1CCN(C(=O)c1cccc(F)c1)CC2` the figure was -5.99%.
The result for `Cc1noc(C)c1CN1CC2(CCN(C(=O)c3ccoc3C)C2)CC1=O` (stereo unspecified) reads -6.54%.
With `O=C(c1ccccc1)N1CCC2(CC1)CC(Oc1ccccc1)CO2` (stereo unspecified) the figure was -11.5%.
`Cc1ncnc2c1CCN(C(=O)c1ccnnc1)CC2`: the cytotoxicity at 70.5 h was -2.5%.
With `Cn1nnc2c1C(COCC1CC1)CN(C(=O)Cc1ccccn1)C2` (stereo unspecified) the figure was -2.19%; with `CN(C)C(=O)N1CCC2(CC1)NC(=O)c1ccccc12`, -2.99%.
With `O=C(C1CCOCC1)N1CC[C@H]2[C@H]1CCN2c1nncs1` the figure was -0.658%; with `CC(C)n1nc(CN(C)C)c2c1CN(C(=O)CC1CC1)CC2`, -4.55%.
The result for `O=S(=O)(NC1CCC12CCN(CC1CCOCC1)CC2)c1ccccc1` (stereo unspecified) reads -2.17%; that for `CC(C)CN1CCN(C)C2(CCN(c3nccs3)CC2)C1=O`, 33.2%.
Take `O=C(NC1CC2(CCN(CCO)CC2)c2ccccc21)c1ccno1` (stereo unspecified): the cytotoxicity at 70.5 h came to 17.6%.
The result for `CN1CC2(CCN(S(=O)(=O)C3CC3)CC2)c2ccccc21` reads 11%.
The result for `CCOCC1CN(C(=O)COc2ccccc2C)Cc2ncn(C)c21` (stereo unspecified) reads -4.87%; that for `CCOCC(=O)N1Cc2[nH]nc(COCC3CC3)c2C1`, 0.817%; that for `CC(C)C(=O)N1CCCC2(CC(C(=O)NCc3cccnc3)=NO2)C1` (stereo unspecified), -2.66%.
Consider `O=C([C@@H]1CC[C@@H]2[C@@H](CCN2Cc2cccs2)O1)N1CCCCO1`, for which the cytotoxicity at 70.5 h is -7.83%.
On to `O=C(N1CCCC1)N1CCO[C@H]2[C@@H](OCc3cccnc3)CC[C@@H]21`, for which the cytotoxicity at 70.5 h is -8.11%.
The result for `Cc1ccc2c(n1)N(CC1CC1)CCN(C(=O)NC1CC1)C2` reads -7.71%; that for `Cn1cc(C(=O)N[C@@H]2CN(Cc3ccc(F)cc3)[C@@H]3CCCO[C@@H]32)cn1`, -4.56%; that for `CC(C)n1cnc2c1C(C(=O)NCCO)N(Cc1ccccc1)CC2` (stereo unspecified), -8.21%.
As for `O=C(C1=CCCCC1)N1CCO[C@H]2[C@H](Oc3ccccn3)CC[C@@H]21`, the cytotoxicity at 70.5 h was -9.07%.
The result for `c1ccc(-c2ncc3c(n2)C2(CCN(CC4CC4)C2)COC3)cc1` (stereo unspecified) reads 15.2%.
With `Cc1ccc(O[C@@H]2C[C@H]3CN(C(=O)c4cnccn4)CCN3C2)cc1` the figure was -4.43%; with `O=C(C1=CC2(CCN(CCO)CC2)c2ccccc21)N1CCCC1`, -4.5%.
Consider `Cc1ccc(CN2CC(C(=O)Nc3ccccc3)C3(CCOCC3)C2)o1` (stereo unspecified), for which the cytotoxicity at 70.5 h was -12.3%.
With `Cn1cc(CN2CC(C(=O)Nc3ccccc3)C3(CCOCC3)C2)cn1` (stereo unspecified) the figure was -9.91%; with `O=C(c1ccsc1)N1CCc2c(COCC3CC3)cncc2C1`, 18.9%.
The result for `CCOCC(=O)N1Cc2nnn(C)c2C(COCc2ccccn2)C1` (stereo unspecified) reads 9.65%; that for `COCC1CN(S(=O)(=O)N(C)C)Cc2cnn(CC3CCCC3)c21` (stereo unspecified), -5.7%.
The result for `Cc1noc(C)c1CN1CCC2(COCc3cnc(N(C)C)nc32)C1` (stereo unspecified) reads -3.18%; that for `CCOCC1CN(Cc2csc(C)n2)Cc2nccn2C1` (stereo unspecified), 3.86%; that for `COc1cccc(CN2CCC3(COCc4cnc(N(C)C)nc43)C2)c1` (stereo unspecified), 1.22%.
In the case of `Cc1cccc(CN2CC[C@H]3CO[C@H](CNC(=O)N(C)C)[C@H]3C2)c1`, the cytotoxicity at 70.5 h is -3.19%.
Consider `CN(C)C(=O)N1CCC(c2nc3ccc(N4CCCC4)cn3n2)CC1`, for which the cytotoxicity at 70.5 h is -4.23%.
Regarding `Cc1nnc(N2C[C@H](OCC3CCCC3)[C@H]3OCCC[C@H]32)s1`, the cytotoxicity at 70.5 h was -5.71%.
The result for `COc1ccc(CN2CC[C@H]3[C@H](CO[C@H]3CNC(=O)N(C)C)C2)cc1` reads -0.91%; that for `Cc1ccc(CN2CCOC3(COCCN(S(C)(=O)=O)C3)C2)s1` (stereo unspecified), -6.35%.
With `Cc1nnc(N2C[C@@H](OCC3CCCC3)[C@H]3OCCC[C@H]32)s1` the figure was -5.21%; with `Cc1ccc(N2CCCc3sc(C(=O)NCCC#N)nc32)nn1`, -4.91%.
With `CN(C)C(=O)NCc1cc(=O)n2c(n1)CN(Cc1ccoc1)CCC2` the figure was 16.4%; with `COCCN1CCO[C@@H]2CN(Cc3ccc(C)o3)C[C@@H]2C1`, 1.59%; with `c1cncc(CN2CCOC(c3ncn4c(C5CC5)cccc34)C2)c1` (stereo unspecified), -3.57%.
For the compound `Cn1cncc1CNC1CC2(CCN(CC3CC3)CC2)c2ccccc21` (stereo unspecified), the cytotoxicity at 70.5 h is -2.23%.
The result for `c1cc(C2CC2)n2cnc(C3CN(Cc4ccncc4)CCO3)c2c1` (stereo unspecified) reads -1.44%; that for `CS(=O)(=O)N1CCC2(CC1)NCCn1c(-c3ccccc3)cnc12`, -7.68%.
The result for `COCCN1CC[C@]2(CN(Cc3ccccn3)C[C@H]2C)C1=O` reads 1.87%.
For `c1cnc(N2CCOCC3(CCCN(CC4CCOCC4)C3)C2)nc1` (stereo unspecified), the cytotoxicity at 70.5 h was -1.71%.
With `CCN(C)c1ncnc2c1CCN(C(=O)c1ccccn1)CC2` the figure was 17.4%; with `O=C(NCc1ccco1)[C@H]1CC[C@@H]2[C@@H](CCN2Cc2cccnc2)O1`, -5.95%.
With `CS(=O)(=O)N1CCOCC2(CN(Cc3ccccn3)CCO2)C1` (stereo unspecified) the figure was -5.98%; with `Cc1nc(CN2Cc3nccn3CC(CN3CCCC3)C2)cs1` (stereo unspecified), -3.82%; with `Cc1nc(CN2Cc3nccn3CC(CN3CCOCC3)C2)cs1` (stereo unspecified), -2.85%.
The result for `Cc1nnc(N2CCO[C@H]3[C@@H](OCc4ccccn4)CC[C@@H]32)s1` reads -2.28%.
